Assay results published in the supplement of paper PMC4723716.
Structures can show the parent of a compound that is named as a salt.

System: Plasmodium falciparum NF54 gametocytes
Details: assay protocol: SaLSSA, 384, incubation time: 72 h
Summary of the method: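 P. falciparum NF54 gametocytes of each stage (I–V) were exposed to compound dilutions in duplicate in 384-well plates, in the serum-free one-step or serum-containing two-step assay, for 72 hr at 37°C under low oxygen. Live gametocytes were stained with MitoTracker Red CMXRos and counted by high-content imaging, then normalised to the plate mean of DMSO wells. IC50 was fitted with a standard logistic regression model.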

[1] = gametocyte stage: Stage I Dose Response IC50 (µM)
[2] = gametocyte stage: Stage II Dose Response IC50 (µM)
[3] = gametocyte stage: Stage III Dose Response IC50 (µM)
[4] = gametocyte stage: Stage IV Dose Response IC50 (µM)
[5] = gametocyte stage: Stage V Dose Response IC50 (µM)

Measured: IC50 of gametocyte viability

COc1cc(Cc2cnc(N)nc2N)cc(OC)c1OC [Trimethoprim]
> 12.5 µM: [1] | [2] | [3] | [4] | [5]

CCC[C@@H]1C[C@@H](C(=O)N[C@@H]([C@H]2O[C@H](SC)[C@H](O)[C@@H](O)[C@H]2O)[C@H](C)Cl)N(C)C1 [clindamycin]
> 12.5 µM: [1] | [2] | [3] | [4] | [5]

C[C@]12CC[C@H](OS(=O)(=O)O)CC1=CC[C@@H]1[C@@H]2CC[C@]2(C)C(=O)CC[C@@H]12 [dehydroepiandrosterone sulphate]
> 12.5 µM: [1] | [2] | [3] | [4] | [5]

O=CN(O)CCCP(=O)([O-])O [fosmidomycin mono sodium]
> 12.5 µM: [1] | [2] | [3] | [4] | [5]

CC(C)NC(=N)NC(=N)Nc1ccc(Cl)cc1 [proguanil hydrochloride/1.14]
> 12.5 µM: [1] | [2] | [3] | [4] | [5]

CCc1nc(N)nc(N)c1-c1ccc(Cl)cc1 [pyrimethamine]
> 12.5 µM: [1] | [2] | [3] | [4] | [5]
